The source of these data is publication PMC11435058, “Synthesis of New Thiazole-Privileged Chalcones as Tubulin Polymerization Inhibitors with Potential Anticancer Activities” (Pharmaceuticals, 2024).

A value given as a limit tells only on which side of the number the result lay.

One data set has as its system OVCAR-3. The experiment in a line: cells. The note with it: Homo sapiens; for activity at 10 µM: OVCAR-3, 48 h, read-out: Growth Percentage; for GI50: OVCAR-3; for CC50: OVCAR-3, read-out: LC50; for IC (TGI): OVCAR-3, read-out: TGI.
In the next data set the test system is NCI-H226. The experiment in a line: NCI-60 anticancer screen (SRB; single dose and five doses). The settings on record: Homo sapiens; for activity at 10 µM: NCI-H226, 48 h, read-out: Growth Percentage; for CC50: NCI-H226, read-out: LC50; for IC (TGI): NCI-H226, read-out: TGI.
The subject of another data set is SF-295. The experiment in a line: NCI-60 anticancer screen (SRB; single dose and five doses). The note with it: Homo sapiens; for activity at 10 µM: SF-295, 48 h, read-out: Growth Percentage; for CC50: SF-295, read-out: LC50; for IC (TGI): SF-295, read-out: TGI.
In the next data set the test system is OVCAR-5. The description is as above. The settings on record: Homo sapiens; for activity at 10 µM: OVCAR-5, 48 h, read-out: Growth Percentage; for CC50: OVCAR-5, read-out: LC50; for IC (TGI): OVCAR-5, read-out: TGI.
The next data set concerns HCT-116. The description is as above. The settings on record: Homo sapiens; for activity at 10 µM: HCT-116, 48 h, read-out: Growth Percentage; for CC50: HCT-116, read-out: LC50; for IC (TGI): HCT-116, read-out: TGI.
The subject of a further data set is MDA-MB-435. Described as above. The settings on record: Homo sapiens; for activity at 10 µM: MDA-MB-435, 48 h, read-out: Growth Percentage; for CC50: MDA-MB-435, read-out: LC50; for IC (TGI): MDA-MB-435, read-out: TGI.
For another data set, the system named is NCI-H322M. Described as above. The note with it: Homo sapiens; for activity at 10 µM: 48 h, read-out: Growth Percentage; for CC50: read-out: LC50; for IC (TGI): read-out: TGI.

`Cc1[nH]c(=S)sc1C(=O)/C=C/c1ccccc1` [2a, (E)-1-(4-Methyl-2-Thioxo-2,3-Dihydrothiazol-5-yl)-3-Phenylprop-2-En-1-One] showed a melting point of 245 to 247 °C. Moreover, in the data set on OVCAR-3, the activity at 10 µM is 42.7%. In addition, the activity at 10 µM in the data set with NCI-H226 was 96.5%. Further, the activity at 10 µM in the data set on SF-295 stood at 88.9%. For the same compound, the activity at 10 µM in the data set with OVCAR-5 was determined as 129%. Also, the activity at 10 µM in the data set with HCT-116 amounted to 49.4%. Further, the activity at 10 µM in the data set on MDA-MB-435 worked out at 50.1%. The activity at 10 µM with NCI-H322M stood at 66.5%.
Regarding `COc1ccc(/C=C/C(=O)c2sc(=S)[nH]c2C)c(OC)c1` [2n, (E)-3-(2,4-Dimethoxyphenyl)-1-(4-Methyl-2-Thioxo-2,3-Dihydrothiazol-5-yl)Prop-2-En-1-One], the melting point lay within 255 to 257 °C. In addition, the activity at 10 µM with OVCAR-3 worked out at 91.2%. The activity at 10 µM in the data set with NCI-H226 stood at 79.7%. In the data set on SF-295, the activity at 10 µM came out at 72.5%. In the data set on OVCAR-5, the activity at 10 µM turned out to be 120%. In the data set with HCT-116, the activity at 10 µM turned out to be 62.3%. Moreover, the activity at 10 µM in the data set on MDA-MB-435 was 84.7%.
On to `COc1ccc(/C=C/C(=O)c2sc(=S)[nH]c2C)cc1` [2l, (E)-3-(4-Methoxyphenyl)-1-(4-Methyl-2-Thioxo-2,3-Dihydrothiazol-5-yl)Prop-2-En-1-One], for which the melting point lay within 246 to 248 °C. For the same compound, in the data set on OVCAR-3, the activity at 10 µM is 66.9%. Besides, the activity at 10 µM with NCI-H226 turned out to be 93.6%. Also, in the data set with SF-295, the activity at 10 µM was found to be 83.5%. In the data set with OVCAR-5, the activity at 10 µM is 145%. For the same compound, the activity at 10 µM in the data set with HCT-116 was 76%. In the data set on MDA-MB-435, the activity at 10 µM was 63.9%. Further, the activity at 10 µM in the data set with NCI-H322M was found to be 92.4%.
In turn, `Cc1[nH]c(=S)sc1C(=O)/C=C/c1ccccc1Cl` [2d, (E)-3-(2-Chlorophenyl)-1-(4-Methyl-2-Thioxo-2,3-Dihydrothiazol-5-yl)Prop-2-En-1-One] registered a melting point of 240 to 242 °C. Further, the activity at 10 µM with OVCAR-3 was 77.4%. The activity at 10 µM with NCI-H226 was found to be 89.6%. Further, the activity at 10 µM in the data set with SF-295 turned out to be 82.5%. The activity at 10 µM in the data set with OVCAR-5 was 116%. For the same compound, the activity at 10 µM with HCT-116 is 44.6%. Besides, in the data set with MDA-MB-435, the activity at 10 µM stood at 80.8%. The activity at 10 µM in the data set on NCI-H322M came to 106%.
Compound `Cc1[nH]c(=S)sc1C(=O)/C=C/c1cccc(F)c1` [2b, (E)-3-(3-Fluorophenyl)-1-(4-Methyl-2-Thioxo-2,3-Dihydrothiazol-5-yl)Prop-2-En-1-One] displayed a melting point of 234 to 236 °C. Also, the activity at 10 µM with OVCAR-3 was -1.17%. For the same compound, the activity at 10 µM in the data set with NCI-H226 was 85.7%. In the data set with SF-295, the activity at 10 µM turned out to be 38.4%. Moreover, the activity at 10 µM in the data set with OVCAR-5 worked out at 88.2%. Besides, in the data set with HCT-116, the activity at 10 µM came out at 21.2%. Further, the activity at 10 µM with MDA-MB-435 amounted to 35.9%. For the same compound, the activity at 10 µM with NCI-H322M came to 84.5%.
On to `COc1ccc(/C=C/C(=O)c2sc(=S)[nH]c2C)cc1OC` [2o, (E)-3-(3,4-Dimethoxyphenyl)-1-(4-Methyl-2-Thioxo-2,3-Dihydrothiazol-5-yl)Prop-2-En-1-One], for which the melting point fell in the range of 245 to 247 °C. The activity at 10 µM with OVCAR-3 was 3.22%. Besides, in the data set with NCI-H226, the activity at 10 µM amounted to 80.5%. Besides, the activity at 10 µM with SF-295 came out at 66.5%. In addition, the activity at 10 µM with OVCAR-5 was 131%. Besides, the activity at 10 µM with HCT-116 is 34.5%. In addition, in the data set on MDA-MB-435, the activity at 10 µM was 38.9%. Further, in the data set on NCI-H322M, the activity at 10 µM came out at 63.4%.
For the compound `Cc1[nH]c(=S)sc1C(=O)/C=C/c1ccc(Cl)cc1` [2f, (E)-3-(4-Chlorophenyl)-1-(4-Methyl-2-Thioxo-2,3-Dihydrothiazol-5-yl)Prop-2-En-1-One], the GI50 in the data set on OVCAR-3 is 2.82 µM; in the data set with NCI-H226 (NCI-H226), 13.8 µM; in the data set on SF-295 (SF-295) it was 15.8 µM; in the data set on OVCAR-5 (OVCAR-5), 17.8 µM; in the data set with HCT-116 (HCT-116), 6.61 µM; in the data set on MDA-MB-435 (MDA-MB-435), 5.5 µM. In the data set with NCI-H322M, this compound returned a GI50 of 10.2 µM. Moreover, the activity at 10 µM in the data set with OVCAR-3 is -24.2%; in the data set with NCI-H226, 20.5%; in the data set on SF-295 it was 42.6%; in the data set on OVCAR-5 it was 50.8%; in the data set with HCT-116, 6.98%; with MDA-MB-435, 22.5%. Further, the IC50 worked out at 2.82 µM in the data set with OVCAR-3 (OVCAR-3, OVCAR-3, five doses); 6.46 µM in the data set on OVCAR-3 (OVCAR-3, five-dose, Ovarian Cancer OVCAR-3); 36.3 µM in the data set on NCI-H226 (NCI-H226); 28.8 µM with SF-295 (SF-295); 32.4 µM with OVCAR-5 (OVCAR-5); 7.94 µM in the data set on HCT-116 (HCT-116). Besides, the IC50 in the data set on MDA-MB-435 (MDA-MB-435) was 11 µM; in the data set on NCI-H322M it was 19.9 µM. The CC50 in the data set with OVCAR-3 is 33.1 µM; in the data set with NCI-H226, over 100 µM; in the data set on SF-295 it was 55 µM; in the data set on OVCAR-5, 60.3 µM; in the data set on HCT-116 it was 74.1 µM; with MDA-MB-435, 49 µM. Moreover, in the data set with NCI-H322M, the CC50 stood at 51.3 µM. In addition, the IC (TGI) in the data set with OVCAR-3 is 10.7 µM; with NCI-H226 it was 38 µM; in the data set on SF-295, 29.5 µM; in the data set with OVCAR-5, 33.1 µM; in the data set on HCT-116, 24.6 µM; in the data set with MDA-MB-435 it was 19.1 µM. Also, the IC (TGI) with NCI-H322M worked out at 22.9 µM.
In the case of `Cc1[nH]c(=S)sc1C(=O)/C=C/c1ccc([N+](=O)[O-])cc1` [2i, (E)-1-(4-Methyl-2-Thioxo-2,3-Dihydrothiazol-5-yl)-3-(4-Nitrophenyl)Prop-2-En-1-One], the concentration for 50% growth inhibition (GI50) worked out at 2.22 µM with OVCAR-3; 15.6 µM in the data set on NCI-H226 (NCI-H226); 16.1 µM with SF-295 (SF-295); 17.8 µM with OVCAR-5 (OVCAR-5); 2.78 µM in the data set on HCT-116 (HCT-116); 7.39 µM in the data set on MDA-MB-435 (MDA-MB-435). In addition, it took 11 µM to inhibit growth with NCI-H322M by half (GI50). The activity at 10 µM in the data set on OVCAR-3 is -6%; in the data set with NCI-H226 it was 91.4%; in the data set with SF-295 it was 86.1%; in the data set with OVCAR-5 it was 110%; in the data set with HCT-116 it was -47.8%; with MDA-MB-435 it was 3.76%. For the same compound, in the data set on NCI-H322M, the activity at 10 µM stood at 50.7%. For the same compound, the CC50 was 16.6 µM in the data set on OVCAR-3; over 100 µM with NCI-H226; 56.5 µM with SF-295; 58.2 µM in the data set with OVCAR-5; 44.3 µM in the data set on HCT-116; 50.9 µM with MDA-MB-435. Moreover, the CC50 in the data set with NCI-H322M amounted to 54.6 µM. For the same compound, the IC (TGI) was 5.28 µM in the data set on OVCAR-3; 42.1 µM in the data set with NCI-H226; 30.2 µM with SF-295; 32.2 µM in the data set on OVCAR-5; 7.89 µM in the data set on HCT-116; 21.1 µM in the data set with MDA-MB-435. In addition, the IC (TGI) with NCI-H322M came to 24.5 µM.
`Cc1[nH]c(=S)sc1C(=O)/C=C/c1ccc(F)cc1` [2c, (E)-3-(4-Fluorophenyl)-1-(4-Methyl-2-Thioxo-2,3-Dihydrothiazol-5-yl)Prop-2-En-1-One]: the GI50 with OVCAR-3 turned out to be 2.42 µM; with NCI-H226 (NCI-H226), 5.27 µM; in the data set on SF-295 (SF-295), 12.5 µM; in the data set with OVCAR-5 (OVCAR-5) it was 15.6 µM; in the data set on HCT-116 (HCT-116), 3.99 µM; in the data set on MDA-MB-435 (MDA-MB-435) it was 4.24 µM. Growth in the data set with NCI-H322M was halved (GI50) at 4.1 µM. In addition, the activity at 10 µM is -10.9% with OVCAR-3; 67.1% with NCI-H226; 60.6% in the data set with SF-295; 119% with OVCAR-5; 23.7% in the data set with HCT-116; 4.67% in the data set with MDA-MB-435. The activity at 10 µM in the data set on NCI-H322M amounted to 64%. The CC50 is 24.5 µM with OVCAR-3; over 100 µM with NCI-H226; 52.9 µM in the data set on SF-295; 57.7 µM with OVCAR-5; 42.5 µM in the data set with HCT-116; 48.7 µM with MDA-MB-435. Besides, the CC50 with NCI-H322M stood at 44.8 µM. For the same compound, the IC (TGI) with OVCAR-3 amounted to 6.81 µM; in the data set with NCI-H226, 27.6 µM; in the data set on SF-295 it was 25.7 µM; with OVCAR-5, 30 µM; in the data set with HCT-116, 15.2 µM; in the data set with MDA-MB-435 it was 17.5 µM. Also, the IC (TGI) in the data set with NCI-H322M was 17.9 µM.
